One data set has as its target CYP2D6 (Homo sapiens, UniProt P10635). Description: CYP2D6 inhibition assay (bufuralol, pooled human liver microsomes).
In data set [1] the test system is Aβ40 in conditioned medium of cells stably expressing Amyloid Precursor Protein (APP). Kind of data set: In vitro BACE cell-based assay (Aβ40 in conditioned medium, sandwich ELISA).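 Note: compounds added as a dilution series, secreted peptide quantified by europium time-resolved fluorescence readout, potency fitted from percent of control versus compound concentration.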 As to conditions: Homo sapiens, IC50's in uM, read-out: HEK cell assay.
The target of another data set is CYP3A4 (CYP3A) (Homo sapiens, UniProt P08684). Description: in vitro. Conditions: microsomes, pH 7.4.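 Note: inhibition of CYP3A-mediated 1-hydroxymidazolam formation after 10 min incubation with NADPH, quantified by HPLC MS relative to metabolite produced without test compound.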
Data set [2] can be described thus: Microsomal stability assay, rat liver microsomes.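 Note: rat liver microsomes (0.25 mg/mL) with about 1 µM compound plus 1 mM NADPH, pH 7.4, 37 °C for 30 min, parent left measured by LC-MS/MS against 0 min.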 Conditions: rat liver microsomal data.
The nature of data set [3]: Microsomal stability assay, human liver microsomes.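 Note: pooled human liver microsomes at 0.25 mg/mL with 1 µM compound and NADPH at 37 °C, pH 7.4, for 30 min, unchanged parent quantified by LC-MS/MS against the 0 min sample.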 As to conditions: human liver microsomal data.
Data set [4] deals with Beta Secretase enzyme (BACE) (Homo sapiens, UniProt P56817). Description: In vitro enzymatic BACE FRET (fluorescence resonance energy transfer) assay.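 Note: fluorescence read after 1 h with 50 nM quenched peptide substrate spanning the BACE cleavage site, in pH 4.2 acetate buffer containing 10% DMSO and nonionic detergent.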 Type of data set: biochemical. Conditions: BACE enzyme assay, IC50's in uM; read-out: BACE1 FRET assay.
[5] abbreviates: 2D6 IC50, CYP enzyme inhibition.
Where [6] appears, read: HEK293, cell-based assay, HEK cells.

Like-named read-outs stand apart in the source and are kept apart here. Where only a bound is given, the exact number is not on record here.

CYP2D6, sequence (P10635 whole entry): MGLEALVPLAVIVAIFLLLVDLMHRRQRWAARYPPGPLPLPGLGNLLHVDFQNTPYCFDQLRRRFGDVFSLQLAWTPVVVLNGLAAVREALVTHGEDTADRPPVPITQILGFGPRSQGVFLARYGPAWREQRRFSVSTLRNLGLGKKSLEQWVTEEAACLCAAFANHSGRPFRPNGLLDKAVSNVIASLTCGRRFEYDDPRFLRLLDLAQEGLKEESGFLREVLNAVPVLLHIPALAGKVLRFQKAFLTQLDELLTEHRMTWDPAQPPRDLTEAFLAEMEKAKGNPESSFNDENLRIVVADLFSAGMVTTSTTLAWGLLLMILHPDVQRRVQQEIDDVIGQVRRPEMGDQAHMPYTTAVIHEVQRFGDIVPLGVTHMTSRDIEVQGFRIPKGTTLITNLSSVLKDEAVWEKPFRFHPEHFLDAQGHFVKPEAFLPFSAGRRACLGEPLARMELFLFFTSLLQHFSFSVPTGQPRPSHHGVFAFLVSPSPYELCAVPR
Beta Secretase enzyme (BACE), sequence (P56817 46-501): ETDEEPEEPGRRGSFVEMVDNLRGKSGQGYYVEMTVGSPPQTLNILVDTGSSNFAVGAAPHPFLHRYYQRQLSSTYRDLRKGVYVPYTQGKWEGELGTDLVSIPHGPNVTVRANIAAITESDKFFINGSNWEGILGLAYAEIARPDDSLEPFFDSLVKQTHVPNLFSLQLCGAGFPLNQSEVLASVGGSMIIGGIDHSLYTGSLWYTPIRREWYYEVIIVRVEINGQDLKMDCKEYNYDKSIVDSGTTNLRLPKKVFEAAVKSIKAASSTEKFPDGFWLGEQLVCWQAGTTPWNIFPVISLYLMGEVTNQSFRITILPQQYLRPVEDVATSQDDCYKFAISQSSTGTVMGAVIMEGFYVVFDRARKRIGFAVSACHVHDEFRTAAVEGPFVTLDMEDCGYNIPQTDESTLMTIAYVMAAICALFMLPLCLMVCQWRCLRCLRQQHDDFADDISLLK
CYP3A4 (CYP3A), sequence (P08684 2-503): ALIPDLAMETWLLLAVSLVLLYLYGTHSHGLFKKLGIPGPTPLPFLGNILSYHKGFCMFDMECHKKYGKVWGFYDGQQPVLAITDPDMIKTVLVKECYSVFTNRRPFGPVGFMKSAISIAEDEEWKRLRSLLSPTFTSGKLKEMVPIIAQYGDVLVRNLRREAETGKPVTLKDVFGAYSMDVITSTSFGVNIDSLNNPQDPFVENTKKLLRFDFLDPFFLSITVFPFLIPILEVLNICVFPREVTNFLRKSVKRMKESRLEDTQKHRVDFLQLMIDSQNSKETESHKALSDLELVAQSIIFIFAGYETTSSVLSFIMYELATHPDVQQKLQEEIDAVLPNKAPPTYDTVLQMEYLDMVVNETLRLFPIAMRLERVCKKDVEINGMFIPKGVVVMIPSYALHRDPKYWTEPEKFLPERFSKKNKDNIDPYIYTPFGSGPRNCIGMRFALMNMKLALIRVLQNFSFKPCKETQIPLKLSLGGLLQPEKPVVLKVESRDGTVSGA

As to `C#Cc1cccc(C[C@H](NC(=O)COC)[C@H](O)CN[C@H]2CC3(CCC3)Oc3ncc(CC)cc32)c1` [compound 842], the IC50 against CYP2D6 (2D6 IC50 (uM), CYP enzyme inhibition) came out at 4.9 µM; in data set [1] (HEK293, HEK cell-based assay), 0.065 µM; against CYP3A4 (CYP3A), 200 nM; in data set [4], 0.026 µM. Besides, in data set [2], the “RLM” value came out at 57 µL/min/mg. Also, the “HLM” value in data set [3] stood at 55 µL/min/mg.

Regarding `COCC(=O)N[C@@H](Cc1cc(Br)cc(-c2nccs2)c1)[C@H](O)CN[C@H]1CC2(CCC2)Oc2ncc(CC(C)(C)C)cc21` [compound 851], the IC50 turned out to be 0.7 µM on CYP2D6 (setting [5]), 0.057 µM in data set [1] (setting [6]), 200 nM against CYP3A4 (CYP3A) and 0.013 µM in data set [4]. The same compound showed an RLM in data set [2] of 59 µL/min/mg. The compound further showed an HLM in data set [3] of 71 µL/min/mg.

As to `CO[C@H](C)C(=O)N[C@@H](Cc1cc(F)cc(-c2nccs2)c1)[C@H](O)CN[C@H]1CC2(CCC2)Oc2ncc(Br)cc21` [compound 852], the IC50 on CYP2D6 (setting [5]) was 0.3 µM; in data set [1] (setting [6]), 0.094 µM; against CYP3A4 (CYP3A) it was 300 nM; in data set [4], 0.246 µM. In data set [2], this compound returned an RLM of 156 µL/min/mg. In data set [3], the HLM was determined as 106 µL/min/mg.

For `CCCc1cnc2c(c1)[C@@H](NC[C@@H](O)[C@H](Cc1cc(F)cc(-c3nccs3)c1)NC(=O)[C@@H](C)OC)CC1(CCC1)O2` [compound 853], the IC50 at CYP2D6 (setting [5]) was determined as 0.7 µM; in data set [1] (setting [6]), 0.075 µM; on CYP3A4 (CYP3A), 400 nM; in data set [4] it was 0.043 µM. The RLM in data set [2] came out at 101 µL/min/mg. Also, the HLM in data set [3] turned out to be 93 µL/min/mg.

`COCC(=O)N[C@@H](Cc1cccc(-n2cccn2)c1)[C@H](O)CN[C@H]1CC2(CCC2)Oc2ncc(CC(C)(C)C)cc21` [compound 854]: the IC50 stood at 2.5 µM at CYP2D6 (setting [5]), 0.007 µM in data set [1] (setting [6]), 600 nM on CYP3A4 (CYP3A) and 0.007 µM in data set [4]. In data set [2], the RLM came to 210 µL/min/mg. This compound registered an HLM in data set [3] of 515 µL/min/mg.

In the case of `COCC(=O)N[C@@H](Cc1cccc(-c2nccs2)c1)[C@H](O)CN[C@H]1CC2(CCC2)Oc2ncc([C@@H]3CC3(C)C)cc21` [compound 857, N-((1S,2R)-3-(((4′S)-6′-((1R)-2,2-dimethylcyclopropyl)-3′,4′-dihydrospiro[cyclobutane-1,2′-pyrano[2,3-b]pyridin]-4′-yl)amino)-2-hydroxy-1-(3-(1,3-thiazol-2-yl)benzyl)propyl)-2-methoxyacetamide], the IC50 on CYP2D6 (setting [5]) was found to be 0.35 µM; in data set [1] (setting [6]), 0.008 µM; against CYP3A4 (CYP3A) it was 100 nM; in data set [4], 0.004 µM. The RLM in data set [2] is 46 µL/min/mg. Besides, the HLM in data set [3] is 51 µL/min/mg.

On to `CCC(=O)N[C@@H](Cc1cc(F)cc(-c2nccs2)c1)[C@H](O)CN[C@H]1CC2(CCC2)Oc2ncc(CC(C)(C)C)cc21` [compound 860], for which the IC50 against CYP2D6 (setting [5]) was 0.3 µM; in data set [1] (setting [6]), 0.015 µM; against CYP3A4 (CYP3A) it was 200 nM; in data set [4], 0.004 µM. For the same compound, the RLM in data set [2] was 69 µL/min/mg. The compound further yielded an HLM in data set [3] of 62 µL/min/mg.

In the case of `CCOCC(=O)N[C@@H](Cc1cc(F)cc(-c2nccs2)c1)[C@H](O)CN[C@H]1CC2(CCC2)Oc2ncc(CC(C)(C)C)cc21` [compound 862, N-((1S,2R)-3-(((4′S)-6′-(2,2-dimethylpropyl)-3′,4′-dihydrospiro[cyclobutane-1,2′-pyrano[2,3-b]pyridin]-4′-yl)amino)-1-(3-fluoro-5-(1,3-thiazol-2-yl)benzyl)-2-hydroxypropyl)-2-ethoxyacetamide], the IC50 against CYP2D6 (setting [5]) worked out at 0.65 µM; in data set [1] (setting [6]) it was 0.009 µM; against CYP3A4 (CYP3A), 300 nM; in data set [4], 0.004 µM. This compound also registered an RLM in data set [2] of 64 µL/min/mg. For the same compound, in data set [3], the HLM came to 43 µL/min/mg.

Turning to `CCCc1cnc2c(c1)[C@@H](NC[C@@H](O)[C@H](Cc1cc(F)cc(-c3nccs3)c1)NC(=O)COC)CC1(CCC1)O2` [compound 865], the IC50 against CYP2D6 (setting [5]) came out at 0.7 µM; in data set [1] (setting [6]), 0.879 µM; against CYP3A4 (CYP3A), 300 nM; in data set [4], 0.086 µM. In data set [2], this compound returned an RLM of 74 µL/min/mg. Also, the HLM in data set [3] was determined as 125 µL/min/mg.

For the compound `COCC(=O)N[C@@H](Cc1cc(F)cc(-c2nccs2)c1)[C@H](O)CN[C@@]1(C)CC2(CCC2)Oc2ncc(CC(C)(C)C)cc21` [compound 866], the IC50 amounted to 0.9 µM at CYP2D6 (setting [5]), 0.88 µM in data set [1] (setting [6]), 200 nM against CYP3A4 (CYP3A) and 0.177 µM in data set [4]. The compound further showed an RLM in data set [2] of 90 µL/min/mg. For the same compound, the HLM in data set [3] came out at 84 µL/min/mg.

Regarding `COC(OC)C(=O)N[C@@H](Cc1cc(F)cc(-c2nccs2)c1)[C@H](O)CN[C@H]1CC2(CCC2)Oc2ncc(CC(C)(C)C)cc21` [compound 871], the IC50 against CYP2D6 (setting [5]) amounted to 0.7 µM; in data set [1] (setting [6]), 0.01 µM; against CYP3A4 (CYP3A), 200 nM; in data set [4] it was 0.007 µM. Besides, in data set [2], the RLM worked out at 73 µL/min/mg. The same compound gave an HLM in data set [3] of 59 µL/min/mg.

For `CC(C)(C)Cc1cnc2c(c1)[C@@H](NC[C@@H](O)[C@H](Cc1cc(F)cc(-c3nccs3)c1)NC(=O)C1(C)CC1)CC1(CCC1)O2` [compound 876], the IC50 amounted to 0.3 µM at CYP2D6 (setting [5]), 0.132 µM in data set [1] (setting [6]), 200 nM on CYP3A4 (CYP3A) and 0.036 µM in data set [4]. In data set [2], the RLM amounted to 91 µL/min/mg. Further, the HLM in data set [3] was 64 µL/min/mg.

For the compound `CC(C)(C)Cc1cnc2c(c1)[C@@H](NC[C@@H](O)[C@H](Cc1cc(F)cc(-c3nccs3)c1)NC(=O)[C@H]1CCCO1)CC1(CCC1)O2` [compound 877], the IC50 on CYP2D6 (setting [5]) worked out at 0.7 µM; in data set [1] (setting [6]), 0.012 µM; on CYP3A4 (CYP3A) it was 200 nM; in data set [4] it was 0.005 µM. In data set [2], this compound had an RLM of 64 µL/min/mg. Also, the HLM in data set [3] amounted to 46 µL/min/mg.

Consider `CO[C@H](C)C(=O)N[C@@H](Cc1cc(F)cc(-c2nccs2)c1)[C@H](O)CN[C@H]1CC2(CCC2)Oc2ncc(C#CC3CC3)cc21` [compound 880], for which the IC50 amounted to 0.3 µM on CYP2D6 (setting [5]), 0.063 µM in data set [1] (setting [6]), 300 nM at CYP3A4 (CYP3A) and 21 µM in data set [4]. Also, the RLM in data set [2] was 107 µL/min/mg. In data set [3], this compound yielded an HLM of 71 µL/min/mg.

`COCC(=O)N[C@@H](Cc1cccc(-c2nccs2)c1)[C@H](O)CN[C@H]1CC2(CCC2)Oc2ncc(C3CCCC3)cc21` [compound 886]: the IC50 on CYP2D6 (setting [5]) was 0.3 µM; in data set [1] (setting [6]), 0.136 µM; at CYP3A4 (CYP3A), 200 nM; in data set [4], 0.143 µM. Moreover, the RLM in data set [2] amounted to 64 µL/min/mg. This compound also had an HLM in data set [3] of 55 µL/min/mg.

As for `COCC(=O)N[C@@H](Cc1cc(Br)cc(Br)c1)[C@H](O)CN[C@H]1CC2(CCC2)Oc2ncc(CC(C)(C)C)cc21` [compound 892], the IC50 is 3.9 µM against CYP2D6 (setting [5]), 0.009 µM in data set [1] (setting [6]), 100 nM against CYP3A4 (CYP3A) and 0.07 µM in data set [4]. For the same compound, the RLM in data set [2] amounted to 274 µL/min/mg. The compound further gave an HLM in data set [3] of 399 µL/min/mg.

Regarding `CO[C@H](C)C(=O)N[C@@H](Cc1cc(-c2nccs2)ccc1F)[C@H](O)CN[C@H]1CC2(CCC2)Oc2ncc(CC(C)(C)C)cc21` [compound 898], the IC50 on CYP2D6 (setting [5]) was found to be 1 µM; in data set [1] (setting [6]), 0.014 µM; at CYP3A4 (CYP3A), 100 nM; in data set [4] it was 0.01 µM. The RLM in data set [2] worked out at 121 µL/min/mg. For the same compound, the HLM in data set [3] amounted to 67 µL/min/mg.

With `CO[C@H](C)C(=O)N[C@@H](Cc1cc(Cl)ccc1F)[C@H](O)CN[C@H]1CC2(CCC2)Oc2ncc(CC(C)(C)C)cc21` [compound 899], the IC50 was determined as 2.6 µM at CYP2D6 (setting [5]), 0.009 µM in data set [1] (setting [6]), 100 nM at CYP3A4 (CYP3A) and 0.005 µM in data set [4]. In addition, the RLM in data set [2] turned out to be 543 µL/min/mg. For the same compound, the HLM in data set [3] was 443 µL/min/mg.

Consider `CCOCC(=O)N[C@@H](Cc1cccc(-c2ncco2)c1)[C@H](O)CN[C@H]1CC2(CCC2)Oc2ncc(CC(C)(C)C)cc21` [compound 901], for which the IC50 against CYP2D6 (setting [5]) was 24.8 µM; in data set [1] (setting [6]) it was 0.032 µM; against CYP3A4 (CYP3A) it was not below 27000 nM; in data set [4] it was 0.01 µM. This compound also yielded an RLM in data set [2] of 62 µL/min/mg. The compound also came in with an HLM in data set [3] of 74 µL/min/mg.

`CCOCC(=O)N[C@@H](Cc1ccc(F)c(-c2nccs2)c1)[C@H](O)CN[C@H]1CC2(CCC2)Oc2ncc(CC(C)(C)C)cc21` [compound 904]: the IC50 against CYP2D6 (setting [5]) was 0.5 µM; in data set [1] (setting [6]) it was 0.062 µM; on CYP3A4 (CYP3A) it was 100 nM; in data set [4], 0.004 µM. Also, in data set [2], the RLM stood at 47 µL/min/mg. Further, the HLM in data set [3] was 38 µL/min/mg.

With `CO[C@H](C)C(=O)N[C@@H](Cc1cccc(-c2nccs2)c1F)[C@H](O)CN[C@H]1CC2(CCC2)Oc2ncc(CC(C)(C)C)cc21` [compound 909], the IC50 on CYP2D6 (setting [5]) was determined as 0.9 µM; in data set [1] (setting [6]), 0.052 µM; against CYP3A4 (CYP3A) it was 100 nM; in data set [4], 0.157 µM. Also, the RLM in data set [2] stood at 127 µL/min/mg. The compound further came in with an HLM in data set [3] of 76 µL/min/mg.

For `CC(C)(C)Cc1cnc2c(c1)[C@@H](NC[C@@H](O)[C@H](Cc1cccc(-c3nccs3)c1F)NC(=O)[C@@H]1CCCO1)CC1(CCC1)O2` [compound 910], the IC50 at CYP2D6 (setting [5]) worked out at 2.4 µM; in data set [1] (setting [6]) it was 0.079 µM; against CYP3A4 (CYP3A), 100 nM; in data set [4] it was 0.079 µM. Also, the RLM in data set [2] stood at 153 µL/min/mg. In data set [3], this compound gave an HLM of 147 µL/min/mg.

(Values after US8163909B2, “Substituted hydroxyethyl amine compounds as beta-secretase modulators and methods of use” (Amgen Inc., priority 2007, dated 2012).)
